Data: patent US8629277B2, “Styrenyl 1,2,4-oxadiazole compounds” (Piramal Enterprises Limited, priority 2010, dated 2014)

What was measured:
Ba/F3 Bcr-Abl/WT [1] = test: In-vivo efficacy in imatinib-sensitive xenograft model in SCID mice; conditions: 200 mpk b.i.d., p.o.
Method: In-vivo efficacy testing of compounds of the present invention in imatinib resistant and imatinib sensitive tumor models was carried out according to the reference Cancer Research, 2002, 62, 7149-7153.
Cell lines Ba/F3 transfectants expressing full-length wild type imatinib sensitive (Ba/F3 Bcr-Abl/WT) or mutated imatinib resistant (Ba/F3 Bcr-Abl/T315I) were used in this study. These recombinant cell lines were licensed from Dr. Brian Druker's laboratory, Howard Hughes Medical Institute, Oregon Health and Science University Cancer Institute, Portland, Oreg., USA.
Required compound was weighed and admixed with 0.5% (w/v) carboxymethylcellulose (CMC) and triturated with Tween-20 (secundum artum) with gradual addition of water to make up the final concentration. Imatinib mesylate was used as a standard.
A group of 110 Severely Combined Immune-Deficient (SCID strain-CBySmn.CB17-Prkdc^scid/J, The Jackson Laboratory, Stock #001803) male mice, 5-6 weeks old, weighing ˜20 g, were used.
Ba/F3 Bcr-Abl/WT cells and Ba/F3 Bcr-Abl/T315I cells were grown in RPMI1640 medium containing 10% fetal calf serum in 5% CO2 incubator at 37° C. Cells were pelleted by centrifugation at 1000-rpm for 10 minutes. […] Tumor size was recorded at 2-5 day intervals. […] Tumor growth in compound treated animals is calculated as T/C (Treated/Control)×100% and Growth inhibition Percent (GI %) was [100−T/C %].

TGFβ = TGFβ assay, Western blot analysis in Ba/F3 Bcr-Abl/T315I cells; type: cell-based; conditions: T315I cell line, 3×IC50, 72 h, FIG. 3
Method: TGFβ is a prime candidate for maintaining the CML stem cells in a non-cycling state. […] TGFβ plays a vital role in the preservation of the malignant progenitor population, and is partially responsible for the resistance to treatments targeting Bcr-Abl observed in a proportion of CML patients.
The Western Blot assay was carried out as in reference, Analytical Biochemistry, 1981, 112, 2, 195-203.
Western blot analysis was performed to decipher the mechanism of action of compounds of the present invention. […] The cells were incubated in a humidified incubator for 2-4 h at 37° C. […] Cells were then incubated for 72 h. Following the incubation, cells were harvested, washed with ice-cold phosphate buffered saline (PBS) and lysed with cold Cell Lytic buffer (Sigma Aldrich) supplemented with complete protease inhibitor cocktail (Roche, Germany). The protein extracts were obtained after centrifugation at 14,000 g at 4° C. (30 min). Aliquots of the resulting extracts were analyzed for their protein content using Bradford Reagent (Sigma) as per the manufacturer's instructions. In all the experiments, equivalent amounts of protein (70 μg) were loaded on 7.5%-10% Tris-glycine gels and resolved at 100 V for 2 h in a buffered solution (24.9 mM Tris base, 250 mM glycine, 0.1% SDS (sodium dodecyl sulfate)). […]

Ba/F3 Bcr-Abl/M244V = molecular target: T1, Ba/F3 Bcr-Abl/M244V (Homo sapiens, UniProt P00519, M244V, cells depend on it); test: Cell proliferation and cytotoxicity CCK-8 assay; type: cell-based; conditions: mouse, 72 h
T1 construct: fused on or other part: P11274 (Breakpoint cluster region protein)

Ba/F3 Bcr-Abl/E255K = molecular target: T2, Ba/F3 Bcr-Abl/E255K (Homo sapiens, UniProt P00519, E255K, cells depend on it); test: Cell proliferation and cytotoxicity CCK-8 assay; type: cell-based; conditions: mouse, 72 h
T2 construct: fused on or other part: P11274 (Breakpoint cluster region protein)

Ba/F3 Bcr-Abl/E255V = molecular target: T3, Ba/F3 Bcr-Abl/E255V (Homo sapiens, UniProt P00519, E255V, cells depend on it); test: Cell proliferation and cytotoxicity CCK-8 assay; type: cell-based; conditions: mouse, 72 h
T3 construct: fused on or other part: P11274 (Breakpoint cluster region protein)

Ba/F3 Bcr-Abl/Y253F = molecular target: T4, Ba/F3 Bcr-Abl/Y253F (Homo sapiens, UniProt P00519, Y253F, cells depend on it); test: Cell proliferation and cytotoxicity CCK-8 assay; type: cell-based; conditions: mouse, 72 h
T4 construct: fused on or other part: P11274 (Breakpoint cluster region protein)

Ba/F3 Bcr-Abl/WT [2] = molecular target: T5, Ba/F3 Bcr-Abl/WT (Homo sapiens, UniProt P00519); test: Cell proliferation and cytotoxicity CCK-8 assay; type: cell-based; conditions: imatinib sensitive cell line; CCK-8, 72 h; read-out: Inhibitory concentrations (IC50) Ba/F3 Bcr-Abl/WT
T5 construct: fused on or other part: P11274 (Breakpoint cluster region protein)
Excerpt: Cell Proliferation and Cytotoxicity CCK-8 Assay:
Cell Counting Kit-8 (CCK-8) assay is a sensitive colorimetric assay for the determination of number of viable cells in cell proliferation and cytotoxicity assays. Cell Counting Kit-8 (CCK-8) utilizes Dojindo's highly water-soluble tetrazolium salt. The amount of the formazan dye generated by dehydrogenases in cells is directly proportional to the number of living cells.
The cell lines described in Table 1 were used to test the antiproliferative activity of the compounds of the present invention.
Cells were seeded at a density of ˜5×10^3 per well (0.09 mL) in a transparent 96-well tissue culture plate (NUNC, USA) and allowed to incubate at 37° C., 5% CO2 incubator for 2-6 h. Different concentrations of compounds of the present invention were added to the wells of the culture plate in triplicate. […] Plates were further incubated in an incubator at 37° C. in presence of 5% CO2 for 72 h. 10 μL of the CCK-8 solution was added to each well and plate was incubated for 1-4 h in the incubator. The absorbance was measured at 450 nm using a microplate reader. The percent inhibition and IC50 were calculated in comparison with control values.

K562 = test: Cell proliferation and cytotoxicity CCK-8 assay; type: cell-based, human; conditions: Homo sapiens; imatinib sensitive cell line K562; CCK-8, 72 h; read-out: Inhibitory concentrations (IC50) K562

## Oc1ccc(C=Cc2nc(Cc3ccccc3)no2)cc1O [Compound of Example 4, 4-[2-(3-Benzyl-[1,2,4]oxadiazol-5-yl)-vinyl]-benzene-1,2-diol]
Ba/F3 Bcr-Abl/WT [1]
  Tumor growth inhibition percent (% GI) Ba/F3 Bcr-Abl/WT: 36%
TGFβ
  p-Smad2 and p-Smad3, effector target molecules of TGFβ signaling: strongly downregulated
Ba/F3 Bcr-Abl/M244V
  GI50: 2.3 µM
Ba/F3 Bcr-Abl/E255K
  GI50: > 10 µM
Ba/F3 Bcr-Abl/E255V
  GI50: 4 ± 1.4 µM
Ba/F3 Bcr-Abl/Y253F
  GI50: 2.1 ± 0.14 µM
Ba/F3 Bcr-Abl/WT [2]
  GI50: < 10 µM
K562
  IC50: 11 to 100 µM

## CCCc1noc(C=Cc2ccc(O)c(O)c2)n1 [Compound of Example 3, 4-[2-(3-Propyl-[1,2,4]oxadiazol-5-yl)-vinyl]-benzene-1,2-diol]
Ba/F3 Bcr-Abl/WT [1]
  Tumor growth inhibition percent (% GI) Ba/F3 Bcr-Abl/WT: 63%
TGFβ
  p-Smad2 and p-Smad3, effector target molecules of TGFβ signaling: strongly downregulated
Ba/F3 Bcr-Abl/M244V
  GI50: 2.1 µM
Ba/F3 Bcr-Abl/E255K
  GI50: 5.4 µM
Ba/F3 Bcr-Abl/E255V
  GI50: 2.1 ± 0.75 µM
Ba/F3 Bcr-Abl/Y253F
  GI50: 1.5 ± 0.56 µM
Ba/F3 Bcr-Abl/WT [2]
  GI50: < 10 µM
K562
  IC50: 11 to 100 µM
